Laboratory results reported in US20040067883A1, “Use of matrix metalloprotease inhibitors for the treatment of cancer” (priority 2000, published 2004).

Tests used:
matrix-metalloproteases = conditions: cited from earlier work
UMSCC-1 = conditions: after treatment with phorbol myristate acetate (PMA); cited from earlier work
p38γ = target: T1, p38γ (Homo sapiens, UniProt P53778); conditions: reported (ref. 27); cited from earlier work
T1 sequence (P53778 1-367): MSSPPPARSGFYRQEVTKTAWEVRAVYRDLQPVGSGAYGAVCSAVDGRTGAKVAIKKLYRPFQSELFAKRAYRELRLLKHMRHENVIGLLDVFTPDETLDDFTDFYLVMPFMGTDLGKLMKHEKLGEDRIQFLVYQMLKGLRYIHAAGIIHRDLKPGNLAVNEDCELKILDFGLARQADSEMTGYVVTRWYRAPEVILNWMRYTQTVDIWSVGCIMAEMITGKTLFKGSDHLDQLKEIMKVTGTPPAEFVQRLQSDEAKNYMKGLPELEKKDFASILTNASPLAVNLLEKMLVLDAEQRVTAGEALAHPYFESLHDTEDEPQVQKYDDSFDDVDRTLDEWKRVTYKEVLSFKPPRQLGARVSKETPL

UM-SCC-1 cells [1] = assay: Cell growth curves (MTT-vital stain); type: cell-based, human; conditions: 5 μM and 10 μM, up to 5 days, medium with 10% FBS
UM-SCC-1 cells [2] = assay: In vitro invasion assay on Matrigel coated filters; type: cell-based, human; conditions: 60 hours, serum-free medium, +/− S.E., 3 dishes
Description: Invasion assays were performed as described (20, 25) using filters with 8 μm pore size coated with ⅓ diluted Matrigel®/SFM (Becton Dickinson, Bedford, Mass.). […] For experiments utilizing a mouse monoclonal MMP-9 Antibody (#IM09L, Oncogene Research Products, Cambridge, Mass.) (0.5, 1, and 10 μg/ml) cells were either plated out in SFM plus antibody of SFM plus similar amounts of preimmune serum. The amount of invasion was determined on the basis of the MTT-activity on the lower side of the filter as a percentage of the total activity in the chamber.
The concentration of the carrier (DMSO) was maintained at 0.1%. […] The data are typical of triplicate experiments.
Invasion is expressed as the percentage of cells invading through Matrigel®. Invasion upon treatment with varying concentrations of the antibody recognizing the active and latent form of MMP-9 or preimmune serum provided by the manufacturer is expressed as average percentage+/−S.E. and represents 3 dishes in each group. The data are typical of triplicate experiments.

MMP-9 = conditions: after treatment with phorbol myristate acetate (PMA); cited from earlier work
p38δ = target: T2, p38δ (Homo sapiens, UniProt O15264); conditions: reported (ref. 27); cited from earlier work
T2 sequence (O15264 1-365): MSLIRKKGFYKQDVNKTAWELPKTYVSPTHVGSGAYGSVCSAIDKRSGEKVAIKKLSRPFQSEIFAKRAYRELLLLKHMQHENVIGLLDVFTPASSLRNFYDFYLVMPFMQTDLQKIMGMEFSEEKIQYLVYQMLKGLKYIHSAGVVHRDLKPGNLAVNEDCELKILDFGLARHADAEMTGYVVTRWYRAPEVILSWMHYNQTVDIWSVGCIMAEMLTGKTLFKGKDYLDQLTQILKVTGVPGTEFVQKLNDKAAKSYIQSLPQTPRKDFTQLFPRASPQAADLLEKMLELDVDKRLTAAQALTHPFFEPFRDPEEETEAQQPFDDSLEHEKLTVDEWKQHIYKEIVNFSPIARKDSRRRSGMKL

SMILES	IC50 value (matrix-metalloproteases)	inhibition of enhanced in-vitro invasiveness (UMSCC-1)	inhibition of p38γ (p38γ)	effect on cell growth (UM-SCC-1 cells [1])	reduction of in-vitro invasion (UM-SCC-1 cells [2]; 5 μM)	reduction of in-vitro invasion (UM-SCC-1 cells [2]; 10 μM)	inhibition of enhanced MMP-9 secretion (MMP-9)	inhibition of p38δ (p38δ)
CNC(=O)[C@@H](NC(=O)[C@H](CC(C)C)[C@H](O)C(=O)NO)C(C)(C)C [marimastat]	micromolar range	–	–	–	–	–	–	–
C[S+]([O-])c1ccc(-c2nc(-c3ccncc3)c(-c3ccc(F)cc3)[nH]2)cc1 (centres unmarked) [SB 203580]	–	could be inhibited	not inhibited	does not affect cell growth	43+/−9%	69+/−8%	could be inhibited	not inhibited
